According to paper PMC10166615 (Bioorganic & Medicinal Chemistry, 2023):

Biological target: SARS-CoV-2 3CLpro (Severe acute respiratory syndrome coronavirus 2, UniProt P0DTD1)
Assay: biochemical
[1] = read-out: SARS-CoV-2 3CLpro Inhibition (%)

Q: Which IC50 does the source give for CC(C)(C)[C@H](NC(=O)C(F)(F)F)C(=O)N1C[C@@H]2CCC[C@@H]2[C@H]1C(=O)N[C@H](C#N)C[C@@H]1CCNC1=O [1a, (1S,3aR,6aS)-N-((S)-1-cyano-2-((S)-2-oxopyrrolidin-3-yl)ethyl)-2-((S)-3,3-dimethyl-2-(2,2,2-trifluoroacetamido)butanoyl)octahydrocyclopenta[c]pyrrole-1-carboxamide] here?
A: Its IC50 is 18.1 ± 2.35 nM.

Q: What about the inhibition at 0.02 µM [1] of the same compound?
A: Its inhibition at 0.02 µM is 24%.

Q: What about the inhibition at 0.1 µM [1] of the same compound?
A: Its inhibition at 0.1 µM is 82.5%.

Q: And the inhibition at 1 µM [1]?
A: The inhibition at 1 µM was 88.9%.

Q: And the inhibition at 10 µM [1]?
A: The inhibition at 10 µM was 88.3%.
